According to paper PMC3728024, “Antidiabetic and Antioxidant Effects and Phytochemicals of Mulberry Fruit (Morus alba L.) Polyphenol Enhanced Extract” (PLoS ONE, 2013):
In brackets after ≈: the same amount, converted by molar mass. Several values for one entry are separate records, joined by “and”; a condition that tells them apart may be missing. Equal entries are not always repeated. Where two headings read alike, the source gives them in different places.

Assays:
[1] = DPPH radical-scavenging assay of the isolated compounds; conditions: mean ± SD, n = 3
Protocol: (§1) The DPPH radical-scavenging assay was performed according to a previously described method. All tests were performed in triplicate. Ascorbic acid and gallic acid were used as positive controls.

[2] = Superoxide anion radical-scavenging assay (NADH/PMS system); conditions: mean ± SD, n = 3; for EC50: isolated compounds
Source text: Superoxide radical were generated by the NADH/PMS system according to a reported protocol. Gallic acid was used as positive control.

[3] = target: T1, α-Glucosidase type I (EC 3.2.1.20) (Saccharomyces cerevisiae, UniProt P53341); experiment: biochemical
T1 construct: purchased Sigma-Aldrich Chemical Co. (St. Louis, MO)
Source text: α-Glucosidase type I (EC 3.2.1.20) from baker's yeast, p-nitrophenyl α-D-glucopyranoside (PNPG), streptozotocin (STZ), were purchased from Sigma-Aldrich Chemical Co. (St. Louis, MO). […] Phenazine methosulfate was purchased from J&K Chemical Ltd. (Shanghai, China). 2,2-Diphenyl-1-picrylhdrazyl (DPPH) was product of Aladdin Chemistry Co. Ltd. (Shanghai, China). Silica gel (200–300 mesh, Anhui Liangchen Silicon Material Co. Ltd. Anhui, China), Sephadex LH-20 (Pharmacia Biothech AB, Uppsala, Sweden), and ODS (40–60 μm, Merck KGaA, Darastadt, Germany) were used for column chromatography. HPLC-grade methanol was purchased from Jiangsu Hanbang Science and Technology Co. Ltd. (Nanjing, China). All other analytical chemicals and reagents were purchased from Sinopharm Chemical Regent Co. Ltd. (Shanghai, China).
The α-glucosidase inhibitory studies were performed spectrophotometrically on 96-well microplate reader according to a reported method. […] The assay was performed in triplicate.

[4] = DPPH radical-scavenging assay of the extracts; conditions: DPPH used was 2,2-Di(4-tert-octylphenyl)-1-picrylhydrazyl, mean ± SD, n = 3
Protocol: as §1

[5] = test system: STZ-induced diabetic mice; experiment: Fasting blood glucose of STZ-induced diabetic mice; format: in vivo; conditions: 300 mg/kg p.o. two times a day, n = 8
Protocol: The mice were given 5% glucose solution orally in order to stave off the hypoglycemia during the first day after the injection of STZ [24]. In testing the FBG of the mice, a standard protocol developed by the American National Institute of Health was carried out. […] The FBG was measured using the Accu-Check Active Blood Glucose Meter (Roche Diagnostics, Mannheim, Germany). […] Sample suspended in distilled water containing 0.3% CMC-Na was administered p.o. two times a day for 2 weeks. FBG of the diabetic mice was determined on the day 7 and 14 as described before. On the day 14, the mice were sacrificed under diethyl ether anesthesia after the FBG determination. Blood was collected from the ophthalmic vein and allowed to clot at room temperature for 30 min. The serum was separate by centrifuging at 4000 rpm for 10 min with a refrigerated centrifuge. Liver and kidney were excised. Samples were stored at −20°C until used.

[6] = test system: STZ-induced diabetic mice; experiment: Glycosylated serum protein (GSP) of STZ-induced diabetic mice, NBT colorimetric method; format: in vivo; conditions: 300 mg/kg p.o. two times a day, n = 8
Protocol: (§2) Total 32 hyperglycemic mice were divided into four groups according to their FBG (8 mice per group): control (distilled water), MFE 100 (100 mg/kg BW), MFE 200 (200 mg/kg BW), and metformin (300 mg/kg BW). Sample suspended in distilled water containing 0.3% CMC-Na was administered p.o. two times a day for 2 weeks. FBG of the diabetic mice was determined on the day 7 and 14 as described before. On the day 14, the mice were sacrificed under diethyl ether anesthesia after the FBG determination. Blood was collected from the ophthalmic vein and allowed to clot at room temperature for 30 min. The serum was separate by centrifuging at 4000 rpm for 10 min with a refrigerated centrifuge. Liver and kidney were excised. Samples were stored at −20°C until used.
GSP level was measured according to the nitroblue tetrazolium (NBT) colorimetric method using commercial kits purchased from Nanjing Jiancheng Bioengineering Institute (Nanjing, China). This method based on the ability of the ketoamine group of glycated proteins to reduce tetrazolium salt under alkaline conditions. Fructosamine was used as standard.

[7] = test system: STZ-induced diabetic mice; experiment: SOD activity in serum, kidney and liver of STZ-induced diabetic mice; format: in vivo; conditions: 300 mg/kg, 2 weeks
Protocol: as §2
(§3) 10% solution of tissue homogenate was prepared as follows. Pieces of liver or kidney were homogenized in 9 volumes (w/v) ice-cold saline and centrifuged at 4000 rpm for 8 min. The supernatants were separated and stored at 4°C for analysis. Protein content of tissue homogenate was determined according to the Bradford method. Bovine serum albumin was used as standard. The superoxide dismutase (SOD), catalase (CAT) and glutathione peroxidase (GSH-Px) activities in liver and kidney tissue, the SOD and CAT activities in serum were determined using the respective commercial kits obtained from Nanjing Jiancheng Bioengineering Institute (Nanjing, China). SOD activity was determined by the nitrite method. SOD activity was expressed as units/mg protein or units/mL serum. The activity of CAT was measured using colorimetric method based on the decomposition of hydrogen peroxide (H2O2) by CAT. The enzyme catalysis was stopped by adding the solution of ammonium molybdate which can react with the rest H2O2 and give a yellow product. The product can be measured at 405 nm by its absorbance. The CAT activities of tissue or serum were presented as units/mg protein or units/mL serum respectively. GSH-Px activity was also measured according to a colorimetric method developed by Sedlak. […]

[8] = test system: STZ-induced diabetic mice; experiment: CAT activity in serum, kidney and liver of STZ-induced diabetic mice; format: in vivo; conditions: 300 mg/kg, 2 weeks
Protocol: as §2, §3

[9] = test system: STZ-induced diabetic mice; experiment: GSH-Px activity in kidney and liver of STZ-induced diabetic mice; format: in vivo; conditions: 300 mg/kg, 2 weeks
Protocol: as §2, with “Samples were stored at −20°C until used.” left out
10% solution of tissue homogenate was prepared as follows. […] Protein content of tissue homogenate was determined according to the Bradford method. […] The superoxide dismutase (SOD), catalase (CAT) and glutathione peroxidase (GSH-Px) activities in liver and kidney tissue, the SOD and CAT activities in serum were determined using the respective commercial kits obtained from Nanjing Jiancheng Bioengineering Institute (Nanjing, China). SOD activity was determined by the nitrite method. SOD activity was expressed as units/mg protein or units/mL serum. The activity of CAT was measured using colorimetric method based on the decomposition of hydrogen peroxide (H2O2) by CAT. […]

[10] = isolated compounds, mean ± SD, n = 3, read-out: IC50 α-glucosidase

T1 sequence (P53341 whole entry): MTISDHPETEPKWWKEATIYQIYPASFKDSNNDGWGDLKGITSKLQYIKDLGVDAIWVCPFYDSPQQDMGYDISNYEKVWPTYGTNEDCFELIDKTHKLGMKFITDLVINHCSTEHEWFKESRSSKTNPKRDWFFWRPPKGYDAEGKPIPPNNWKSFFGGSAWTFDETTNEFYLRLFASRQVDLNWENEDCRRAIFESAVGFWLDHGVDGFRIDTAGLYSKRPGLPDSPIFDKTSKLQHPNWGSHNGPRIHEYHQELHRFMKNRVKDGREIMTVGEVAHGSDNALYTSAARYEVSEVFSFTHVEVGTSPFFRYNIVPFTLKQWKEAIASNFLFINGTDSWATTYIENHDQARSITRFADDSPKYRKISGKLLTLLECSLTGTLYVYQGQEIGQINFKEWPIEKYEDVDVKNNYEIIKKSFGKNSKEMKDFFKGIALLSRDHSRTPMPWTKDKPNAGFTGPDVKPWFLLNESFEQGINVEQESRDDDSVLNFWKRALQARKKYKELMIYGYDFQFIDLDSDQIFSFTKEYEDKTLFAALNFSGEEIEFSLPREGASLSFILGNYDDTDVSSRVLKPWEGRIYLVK

CC(C)=CCc1c(O)ccc(C(=O)/C=C/c2ccc(O)cc2O)c1O [Compound 13, 2,4,2′,4′,-tetrahydroxy-3′-(3-methyl-2-butenyl)-chalcone]
EC50 [1]: > 500 µM
EC50 [2]: 191 ± 15 µM
IC50 [3, 10]: 50 ± 3.18 µM

COC(=O)Cc1c(O)cc(O)cc1OC(=O)c1ccc(O)c(O)c1 [Compound 16, 2-O-(3,4-dihydroxybenzoyl)-2,4,6-trihydroxyphenylmethylacetate]
EC50 [1]: 10.8 ± 0.94 µM
EC50 [2]: 37.5 ± 2.62 µM
IC50 [3]: 31.7 ± 3.38 µM

O=c1c(O)c(-c2ccc(O)c(O)c2)oc2cc(O)cc(O)c12 [Compound 1, quercetin]
EC50 [1]: 11.9 ± 0.72 µM
EC50 [2]: 27.9 ± 0.59 µM

CC(C)=CCc1c(O)ccc(C(=O)/C=C/c2ccc(O)cc2)c1O [Compound 12, isobavachalcone]
EC50 [1]: > 500 µM
EC50 [2]: 150 ± 9.1 µM
IC50 [3, 10]: 67.3 ± 5.51 µM

O=c1c(O[C@@H]2O[C@H](CO)[C@@H](O)[C@H](O)[C@H]2O)c(-c2ccc(O)c(O)c2)oc2cc(O[C@@H]3O[C@H](CO)[C@@H](O)[C@H](O)[C@H]3O)cc(O)c12 [Compound 6, quercetin 3,7-di-O-β-D-glucopyranoside]
EC50 [1]: 9.18 ± 0.97 µM
EC50 [2]: 50.7 ± 6.7 µM
IC50 [3, 10]: 600 ± 45.9 µM

COC(=O)c1ccc(O)c(O)c1 [Compound 20, protocatechuic acid methyl ester]
EC50 [1]: 10.7 ± 0.34 µM
EC50 [2]: 214 ± 16.9 µM

CC(=O)OC[C@H]1O[C@@H](Oc2c(-c3ccc(O)c(O)c3)oc3cc(O)cc(O)c3c2=O)[C@H](O)[C@@H](O)[C@@H]1O [Compound 3, quercetin 3-O-(6′′-O-acetyl)-β-D-glucopyranoside]
EC50 [1]: 11.8 ± 1.04 µM
EC50 [2]: 45.1 ± 1.66 µM
IC50 [3, 10]: 310 ± 12.7 µM

O=C1O[C@H]([C@@H](O)CO)C(O)=C1O [Ascorbic acid, reference compound]
EC50 [1]: 33.5 ± 1.2 µM
EC50 [2]: > 500 µM

O=C1C[C@@H](c2ccc(O[C@@H]3O[C@H](CO)[C@@H](O)[C@H](O)[C@H]3O)c(O)c2)Oc2cc(O)cc(O)c21 [Compound 9, 5,7,3′-trihydroxy-flavanone-4′-O-β-D-glucopyranoside]
EC50 [1]: 79.4 ± 4.74 µM
EC50 [2]: 90.7 ± 8.28 µM
IC50 [3]: 409 ± 38.7 µM

C[C@@H]1O[C@@H](OC[C@H]2O[C@@H](Oc3c(-c4ccc(O)cc4)oc4cc(O)cc(O)c4c3=O)[C@H](O)[C@@H](O)[C@@H]2O)[C@H](O)[C@H](O)[C@H]1O [Compound 8, kaempferol 3-O-β-D-rutinoside]
EC50 [1]: 152 ± 5.9 µM
EC50 [2]: 196 ± 7.98 µM
IC50 [3]: 178.3 ± 0.35 µM

O=C(O)Cc1c(O)cc(O)cc1OC(=O)c1ccc(O)c(O)c1 [Compound 15, 2-O-(3,4-dihydroxybenzoyl)-2,4,6-trihydroxyphenylacetic acid]
EC50 [1]: 7.87 ± 0.73 µM
EC50 [2]: 15.2 ± 0.7 µM
IC50 [3]: 116 ± 6.75 µM

OCCc1ccc(O)cc1 [Compound 24, 2-(4-hydroxyphenyl)ethanol]
EC50 [1]: > 500 µM
EC50 [2]: 417 ± 23.9 µM

C=C(C)C1Cc2c(ccc(C(=O)/C=C/c3ccc(O)cc3)c2O)O1 (stereo not shown) [Compound 14]
EC50 [1]: > 500 µM
EC50 [2]: 175 ± 9.72 µM
IC50 [3]: 225 ± 4.79 µM

C[C@@H]1O[C@@H](OC[C@H]2O[C@@H](Oc3c(-c4ccc(O)c(O)c4)oc4cc(O)cc(O)c4c3=O)[C@H](O)[C@@H](O)[C@@H]2O)[C@H](O)[C@H](O)[C@H]1O [Compound 4, quercetin 3-O-β-D-rutinoside]
EC50 [1]: 9.76 ± 0.61 µM
EC50 [2]: 30.6 ± 0.99 µM
IC50 [3, 10]: 166 ± 11.7 µM

O=c1c(O)c(-c2ccc(O)c(O)c2)oc2cc(O[C@@H]3O[C@H](CO)[C@@H](O)[C@H](O)[C@H]3O)cc(O)c12 [Compound 5, quercetin 7-O-β-D-glucopyranoside]
EC50 [1]: 9.8 ± 0.53 µM
EC50 [2]: 24.6 ± 1.67 µM
IC50 [3]: 370 ± 31.2 µM

O=C(O)c1cc(O)c(O)c(O)c1 [Gallic acid, reference compound]
EC50 DPPH [4]: 4.95 ± 0.24 µg/mL (≈ 29.1 µM)
EC50 [1]: 5.18 ± 0.34 µM
EC50 Superoxide anion ([2]; extracts): 5.21 ± 0.27 µg/mL (≈ 30.6 µM)
EC50 [2]: 10.1 ± 0.39 µM

CCOC(=O)c1ccc(O)c(O)c1 [Compound 21, protocatechuic acid ethyl ester]
EC50 [1]: 9.04 ± 0.21 µM
EC50 [2]: 606 ± 25.8 µM

O=C1C[C@@H](c2ccc(O)c(O[C@@H]3O[C@H](CO)[C@@H](O)[C@H](O)[C@H]3O)c2)Oc2cc(O)cc(O)c21 [Compound 10, 5,7,4′-trihydroxy-flavanone-3′-O-β-D-glucopyranoside]
EC50 [1]: 222 ± 13.8 µM
EC50 [2]: 194 ± 8.12 µM
IC50 [3, 10]: 728 ± 67.7 µM

O=C(O)c1ccc(O)c(O)c1 [Compound 18, protocatechuic acid]
EC50 [1]: 11.9 ± 0.69 µM
EC50 [2]: 101 ± 8.27 µM

O=c1c(O[C@@H]2O[C@H](CO)[C@@H](O)[C@H](O)[C@H]2O)c(-c2ccc(O)c(O)c2)oc2cc(O)cc(O)c12 [Compound 2, quercetin-3-O-β-D-glucopyranoside]
EC50 [1]: 7.89 ± 0.5 µM
IC50 [3, 10]: 165 ± 11.6 µM

CN(C)C(=N)N=C(N)N [Metformin]
FBG day 0 ([5]; day 0): 25.66 ± 5.95 mmol/L
FBG day 7 ([5]; day 7): 15.44±4.57c mmol/L
FBG day 14 ([5]; day 14): 17.38±5.31c mmol/L
GSP day 14 [6]: 6.06±0.47 mmol/L and 6.06±0.47b mmol/L
Kidney SOD ([7]; kidney): 246.56±24.80b units/mg protein
Liver SOD ([7]; liver): 145.03±13.79 units/mg protein
Serum SOD ([7]; serum): 251.29±28.78b units/mL serum
Kidney CAT ([8]; kidney): 21.85±3.90b units/mg protein
Liver CAT ([8]; liver): 27.07±2.74 units/mg protein
Serum CAT ([8]; serum): 50.53±17.87c units/mL serum
Kidney GSH-Px ([9]; kidney): 240.36±40.31
Liver GSH-Px ([9]; liver): 275.78±21.02

O=c1c(O[C@@H]2O[C@H](CO)[C@@H](O)[C@H](O)[C@H]2O)c(-c2ccc(O)cc2)oc2cc(O)cc(O)c12 [Compound 7, kaempferol 3-O-β-D-glucopyranoside]
EC50 [1]: 301 ± 13.8 µM
EC50 [2]: 122 ± 5.49 µM

Oc1ccccc1O [Compound 25, pyrocatechol]
EC50 [1]: 6.74 ± 0.28 µM
EC50 [2]: 45.8 ± 2.97 µM

O=C1c2c(O)cc(O[C@@H]3O[C@H](CO)[C@@H](O)[C@H](O)[C@H]3O)cc2O[C@H](c2ccc(O)cc2)[C@H]1O [Compound 11, dihydrokaempferol 7-O-β-D-glucopyranoside]
EC50 [1]: 6.46 ± 0.39 µM
EC50 [2]: 58.3 ± 2.39 µM
IC50 [3, 10]: 933 ± 98.8 µM
